Experimental data taken from US9861568B2, “Composition for improving skin conditions, containing chlorophyll a or pheophorbide a” (GWANGJU INSTITUTE OF SCIENCE AND TECHNOLOGY, priority 2014, dated 2018).

What was measured:
[1] = tested on: dorsal skin of UV-irradiated SKH-1 hairless mice; test: Wrinkle evaluation of dorsal skin of UV-irradiated hairless mice (visual grade, negative replica); type: in vivo, mouse; conditions: UV 8 weeks, 5 mg/kg daily oral; for visual wrinkle grade: clinical images rated by two practitioners; for wrinkle area in replicated images: compared to the control group; for thickness of wrinkles of dorsal skin: compared with the control group
Protocol: (§1) In order to irradiate animals with UV, the minimal erythema dose (MED) of the dorsal skin of mice was examined first. Minimal erythema dose means the minimum amount of erythema that can be derived with a clear border after 24 hours of irradiation. The mice were irradiated three times a week for 8 weeks with UV. During the first 3 weeks, the dose was increased by 1 MED (herein, 1 MED=30 mJ/cm2), and then 3 MED was maintained thereafter.
(§2) Premature female SKH-1 hairless mice were purchased from Charles River Laboratories (Wilmington, Mass.) and adapted for one week. The mice were housed in air-conditioned rooms in a 12-hour light/12-hour dark cycle to allow them to eat water and food freely. The room temperature was maintained at 23±3° C. and under humidity at 55±15%. All experiments were approved by the Animal Care and Use Committee at Gwangju Institute of Science and Technology.
(§3) After the adaptation period, mice were divided into 4 groups of 6 mice per each group. Each of the groups was as follows:
(c) Group of receiving 5 mg/kg daily chlorophyll a with UV irradiation
(d) Group of receiving 5 mg/kg pheophorbide a daily with UV irradiation
(§4) Chlorophyll a (Ca, Sigma-Aldrich, St Louis, Mo., USA) or pheophorbide a (Pa, Frontier Scientific, Logan, Utah, USA) was dissolved in a solution of 40% polyethylene glycol 400 (Sigma-Aldrich, St Louis, Mo., USA), respectively. As a control, vehicle was prepared with only 40% polyethylene glycol 400 solution and administered to mice in the negative control and positive control groups. The administration of test materials was made immediately after UV irradiation.
A digital camera (Sony Cybershot DSC-W570, 5× optical zoom, 16.1 megapixels, Sony Corporation, Tokyo, Japan) was used to obtain a clinical image of the dorsal skin after continuous exposure to low dose UV. The enlarged wrinkles were obtained using DermLite®IIHybridM (3Gen, LLC, San Juan Capistrano, Calif., USA) attached to the digital camera. The wrinkles of the dorsal skin of the mice were graded according to the method described by Bissett et al.. The grades were as follows:
Grade 0—no thick wrinkles;
Grade 1—a few shallow thick wrinkles;
Grade 2—some thick wrinkles;
Grade 3—multiple deep thick wrinkles.
A negatively imprinted replica was used to analyze the wrinkles of the skin, which is described by Ryu et al.. That is, a semi-fluidic silicone polymer was mixed with a catalyst (Imprint II Garant™ Light Body, 3M) and then applied to a dorsal skin sufficiently to penetrate into the wrinkles beyond a contour. This replica was analyzed under standard illumination with an incident angle where the replica was formed and set to produce a reflective shadow proportional to the height of the wrinkles. The captured images were analyzed from a shadow region in the images using image analysis software (ImageJ software, NIH Image, National Institutes of Health, Bethesda, Md., USA; online at: http://rsb.info.nih.gov/ij/).

[2] = tested on: intercellular adhesion molecule-1 (ICAM-1); test: Immunohistochemical staining for ICAM-1 in dorsal skin of UV-irradiated mice; type: in vivo, mouse; conditions: 5 mg/kg daily oral, compared with the UV-only-irradiated group
Protocol: as §1, §2, §3
as §4, with “The administration of test materials was made immediately after UV irradiation.” left out

[3] = tested on: dorsal skin of UV-irradiated SKH-1 hairless mice; test: Histological examination of dorsal skin of UV-irradiated mice (H&E, Masson-trichrome); type: in vivo, mouse; conditions: 5 mg/kg daily oral; for collagen breakdown in the dermis / infiltration of inflammatory cells in the epidermis and upper dermis: compared with the control group; for infiltration of inflammatory cells in the epidermis and upper dermis: H&E stain; for thickness of the epidermis: Masson-trichrome staining
Protocol: as §1, §2, §3, §4
Tissue samples taken from the dorsal skin of UV-irradiated mice were fixed in 4% paraformaldehyde and then included in paraffin. Thin sections with a thickness of 4 μm were stained with hematoxylin and eosin solution. To visualize collagen deposition, the sections were stained with Accustain trichrome stain (Sigma-Aldrich, St. Louis, Mo., USA). The epidermal thickness from a junction of the granular keratocytes to a junction of the dermis-epidermis was measured using an i-Solution DT image acquisition and analysis program (IMT 20 i-solution, Vancouver, Canada) and a Leica microscope (Leica, Wetzlar, Germany). To assess the thickness of the epidermis, any of the ten sites on the slide were measured. In […], inflammatory cells from epidermis to subcutaneous fat layer were calculated.

[4] = tested on: MMP-1; test: Real-time RT-PCR of MMP-1 mRNA in UV-irradiated hDF cells; type: cell-based, human; conditions: cultured 24 hours, relative to GAPDH
Protocol: (§5) The primary human dermal fibroblast (hDF) cell line was obtained from Chonnam National University Medical School (Gwangju, Republic of Korea). The cells were cultured at 37° C. and under 5% CO2 using Dulbecco's Modified Eagle's Medium (DMEM, Gibco Laboratories, Grand Island, N.Y., USA) supplemented with 5% fetal bovine serum (Gibco Laboratories, Grand Island, N.Y., USA) and 1% penicillin (100 units/ml)/streptomycin ([…]).
(§6) Philips TL 20W/12 RS fluorescent sun lamp with emission spectra of 280 nm and 380 nm was used as an UV source. The UV intensity at the skin surface was measured using a UV detector (GUVx-T1xGS5-LA2, Genicom Daejeon, Korea). The UV irradiation intensity was 1.0 mW/cm2 at 30 cm from the UV source. The cells were cultured up to 75-80% of culture dish, washed twice with PBS buffer, and irradiated with UV to treat test materials. Thereafter, the cells were continuously cultured in the absence of light until the next analysis.
(§7) Total RNA was isolated using a Trizol reagent (Invitrogen, Carlsbad, Calif., USA) according to the manufacturer's instructions. […] For the detection of fluorescence during the PCR amplification, SYBR Premix Ex Taq (Takara Bio, Otsu, Japan) was used. […]
(§8) In addition, UV was irradiated, the test materials were treated, cultured for 24 hours, and then the mRNA level of MMPs was analyzed using a real time RT PCR method. […]

[5] = tested on: MMP-3; test: Real-time RT-PCR of MMP-3 mRNA in UV-irradiated hDF cells; type: cell-based, human; conditions: cultured 24 hours, relative to GAPDH
Protocol: as §5, §6, §7, §8

[6] = tested on: MMP-1; test: Western blotting of MMP-1 protein in UV-irradiated hDF cells; type: cell-based, human; conditions: various concentrations
Protocol: as §5
as §6, with “analysis. […]” for “analysis.”

[7] = tested on: extracellular signal-regulated kinase (Erk); test: Western blotting of phosphorylated Erk in UV-irradiated hDF cells; type: cell-based, human; conditions: 20 μM and 50 μM, 2 hours in the absence of light
Protocol: as §5
as §6, with “analysis. […]” for “analysis.”

[8] = tested on: human dermal fibroblast (hDF) cells; test: Cell viability assay (water soluble tetrazolium) in UV-irradiated hDF cells; type: cell-based; conditions: UV 20 mJ/cm2, 0, 10, 20, 50 μM, 72 hours in the absence of light
Protocol: as §5, §6
A water soluble tetrazolium test method was used for cell viability analysis. Quantification of living cells was performed using a […] Ez-cytox Cell Viability Assay Kit (Daeil Lab Co, Seoul, Korea). The formazan dye was analyzed spectrophotometrically by measuring the absorbance at 450 nm using a Chameleon multi-label plate reader (Hidex Personal Life Science, Hidex Oy, Finland). […]

[9] = tested on: c-Jun N-terminal kinase (JNK); test: Western blotting of phosphorylated JNK and JNK in UV-irradiated hDF cells; type: cell-based, human
Protocol: as §5, §6
The total protein extracts from the samples were dissolved in lysis buffer (50 mM Tris (pH 7.4), 150 mM NaCl, 1 mM EGTA, 1% NP-40, 0.25% sodium deoxycholate, 1 mM PMSF, and phosphatase inhibitor mixture (Sigma, St. Louis, Mo., USA) and then boiled for 5 minutes. The dissolved proteins were quantitated using Bio-Rad Protein Assay Dye Reagent Concentrate (Bio-Rad Laboratories, Hercules, Calif., USA) and then separated by SDS-PAGE and transferred to a polyvinylidene difluoride (PVDF) membrane (Amersham Pharmacia Biotech, Piscataway, N.J., USA). Membranes were reacted with specific primary antibodies overnight at 4° C., and protein bands were then visualized using secondary antibodies coupled with horseradish peroxidase (HRP) and a chemiluminescence detection kit (Amersham Pharmacia Biotech). […]

[10] = tested on: MMP-3; test: Western blotting of MMP-3 protein in UV-irradiated hDF cells; type: cell-based, human; conditions: various concentrations
Protocol: as §5
as §6, with “analysis. […]” for “analysis.”

Molecule | visual wrinkle grade [1] | wrinkle area in replicated images [1] | thickness of wrinkles of dorsal skin [1] | level of ICAM-1 expression in the epidermis and upper dermis [2] | collagen breakdown in the dermis [3] | infiltration of inflammatory cells in the epidermis and upper dermis [3] | thickness of the epidermis [3] | MMP-1 mRNA level [4] | MMP-3 mRNA level [5] | MMP-1 protein expression level [6] | expression level of phosphorylated Erk [7] | cell viability [8] | MAPK phosphorylation inhibition ([9]; 10 μM, 2 hours) | expression level of phosphorylated JNK ([9]; 20 μM and 50 μM, 2 hours in the absence of light) | basal JNK protein level ([9]; 2 hours in the absence of light) | MMP-3 protein expression level [10]
C=Cc1c(C)c2cc3nc(c4c5[n-]c(cc6nc(cc1[n-]2)C(C)=C6CC)c(C)c5C(=O)[C@@H]4C(=O)OC)[C@@H](CCC(=O)OC/C=C(\C)CCC[C@H](C)CCC[C@H](C)CCCC(C)C)[C@@H]3C.[Mg+2] [chlorophyll a] | wrinkles grades were lower | a decrease in the wrinkle area | remarkably reduced | decreased | less collagen breakdown occurred | reduced | A decrease in thickness | – | – | – | – | – | – | – | – | –
pheophorbide a | wrinkles grades were lower | a decrease in the wrinkle area | remarkably reduced | decreased | less collagen breakdown occurred | reduced | A decrease in thickness | significant decrease | significant decrease | decreased in proportion to the amount treated | decreased | not affected | not as much as 20 μM and 50 μM | decreased | decreased in proportion to the amount of pheophorbide a | decreased in proportion to the amount treated
